The target in assay [1] is FaRRP1-His/MBP fusion protein (Fragaria × ananassa, UniProt K9LRD7). Description: ITC binding of ABA to FaRRP1. The source says: (§1) The expression and purification of the recombinant proteins FaRRP1, FaPYL2, and FaABAR were done by a prokaryotic (E. coli) expression system. The cDNA encoding the FaRRP1, FaPYL2, and FaABAR was synthesized using the aforementioned method by PCR amplification using the primers listed in Table S1. The recombinant plasmids of pET-28a-FaPYL2-His, pMAL-C5X-FaRRP1-His/MBP, pGEX4T-1-FaRRP1-GST, pET-28a-FaABAR-His were constructed. After positive recombinants were identified by double-digesting and sequencing, the E. coli strain BL21 (DE3) cells with the recombinant plasmid were grown in 500 ml LB medium containing different antibiotics at 37 °C. On A600 at 0.6 to 0.7, 0.5 mM IPTG was added to inducibly express the fusion proteins overnight at 16 °C for 12 h. The cultures were harvested and suspended with 20 ml binding buffer (20 mM Na2HPO4, 20 mM NaH2PO4, 300 mM NaCl, 20 mM MgCl2, 10 mM imidazole, pH 7.4), then lysed by sonication in a Misonix Sonifier at 4 °C; finally, the supernatants were loaded onto BeaverBeads IDA- Ni^2+ (Beaver) columns and mixed gently by shaking at 4 °C for 60 min. […]
(§2) The purified protein was concentrated using an Amicon Ultra-4 centrifugal 3-kDa filter (Millipore) at 3000g for 20 min in a swing bucket rotor (Sigma). […] The binding reaction between fusion protein to ABA was detected by ITC. […]

In assay [2] the target is FaPYL2-His fusion protein. Put plainly: ITC binding of ABA to FaPYL2. Details: species or system Fragaria × ananassa. As to conditions: 0.4 mM S-(+)-ABA titrated into 20 μM protein, pH 7.4, 25 °C, endothermic, saturation curve.
Excerpt: as §1, §2

Assay [3] has as its target T1, FaABAR-His fusion protein (Fragaria × ananassa, UniProt C6KF71).
T1 sequence (C6KF71 1-1381): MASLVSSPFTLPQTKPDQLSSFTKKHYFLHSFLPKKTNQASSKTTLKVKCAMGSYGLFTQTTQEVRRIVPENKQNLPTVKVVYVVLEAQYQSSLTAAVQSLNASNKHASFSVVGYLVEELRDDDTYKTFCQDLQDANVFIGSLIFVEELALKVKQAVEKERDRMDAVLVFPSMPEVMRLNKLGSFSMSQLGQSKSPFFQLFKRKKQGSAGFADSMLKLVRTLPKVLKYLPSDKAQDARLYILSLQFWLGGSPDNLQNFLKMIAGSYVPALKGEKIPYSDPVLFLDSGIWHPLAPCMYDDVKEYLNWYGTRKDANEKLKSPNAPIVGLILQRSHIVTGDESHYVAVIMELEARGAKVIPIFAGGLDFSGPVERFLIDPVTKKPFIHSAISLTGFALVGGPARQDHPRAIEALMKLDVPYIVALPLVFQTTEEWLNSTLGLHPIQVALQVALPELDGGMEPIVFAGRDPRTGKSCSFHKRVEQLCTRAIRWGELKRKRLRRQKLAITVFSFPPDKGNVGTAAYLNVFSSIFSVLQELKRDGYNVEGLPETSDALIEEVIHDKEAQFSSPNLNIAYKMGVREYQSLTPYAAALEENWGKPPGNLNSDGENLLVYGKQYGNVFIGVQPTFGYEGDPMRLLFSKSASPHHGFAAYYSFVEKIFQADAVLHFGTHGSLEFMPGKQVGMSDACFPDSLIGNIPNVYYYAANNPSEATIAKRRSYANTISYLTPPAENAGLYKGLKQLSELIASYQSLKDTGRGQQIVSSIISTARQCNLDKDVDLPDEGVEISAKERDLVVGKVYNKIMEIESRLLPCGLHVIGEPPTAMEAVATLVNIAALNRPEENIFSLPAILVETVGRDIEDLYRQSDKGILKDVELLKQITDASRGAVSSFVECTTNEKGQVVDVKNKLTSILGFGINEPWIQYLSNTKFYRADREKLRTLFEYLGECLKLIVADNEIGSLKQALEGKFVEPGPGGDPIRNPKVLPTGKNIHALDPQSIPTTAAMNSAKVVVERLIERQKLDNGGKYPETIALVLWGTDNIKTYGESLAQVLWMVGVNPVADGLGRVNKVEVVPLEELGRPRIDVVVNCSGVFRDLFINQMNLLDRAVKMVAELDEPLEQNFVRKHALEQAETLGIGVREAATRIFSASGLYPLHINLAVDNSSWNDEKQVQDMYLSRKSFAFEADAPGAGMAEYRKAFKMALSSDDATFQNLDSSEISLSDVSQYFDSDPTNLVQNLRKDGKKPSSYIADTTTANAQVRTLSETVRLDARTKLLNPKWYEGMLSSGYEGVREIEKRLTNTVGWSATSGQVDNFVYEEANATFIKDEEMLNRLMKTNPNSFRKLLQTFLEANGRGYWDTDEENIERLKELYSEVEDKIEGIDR
Put plainly: ITC binding of ABA to FaABAR.
Excerpt: as §1, §2

Assay [4] concerns the target FaRRP1–FaPYL2 protein complexes. Put plainly: ITC binding of ABA to FaRRP1–FaPYL2 complex. More on the design: species or system Fragaria × ananassa. As to conditions: 0.4 mM S-(+)-ABA titrated into 20 μM complex, pH 7.4, 25 °C, endothermic. How it is done: (§3) Whether FaRRP1 affects the binding activity of FaPYL2 and FaABAR to ABA is unclear. For this, FaRRP1-His/MBP, FaPYL2-His, and FaABAR-His were purified and dialyzed into the same buffer (ITC Buffer) (20 mM Na2HPO4, 20 mM NaH2PO4, 300 mM NaCl, 20 mM MgCl2 pH 7.4). Then, the molar concentrations of FaRRP1-FaPYL2 and FaRRP1-FaABAR complexes were mixed into the same ratio and placed at 4 °C for 30 min. Finally, 1-fold protein peptide and 20-fold S- (+)-ABA were used for ITC assays (Fig. 5, D and H).
(§4) The purified protein was concentrated using an Amicon Ultra-4 centrifugal 3-kDa filter (Millipore) at 3000g for 20 min in a swing bucket rotor (Sigma). The protein was then desalted for buffer exchange using a HiTrap desalting column (GE Healthcare). The HiTrap desalting column was filled with ITC buffer (20 mM Na2HPO4, 20 mM NaH2PO4, 300 mM NaCl, 20 mM MgCl2, pH 7.4) to remove ethanol completely and equilibrate the column. The final concentration of the FaRRP1-His/MBP, FaPYL2-His, and FaABAR-His fusion protein was adjusted to 20 μM. The binding reaction between fusion protein to ABA was detected by ITC. To ensure the univariate of the experiment, an ITC buffer was used to prepare an ABA solution with 20 times protein concentration to ensure the matching of buffer environment between the two. The ITC analysis used 20-μM fusion protein and 400-μM ABA in an ITC200 calorimeter (MicroCal). […]

Assay [5] deals with FaRRP1–FaABAR protein complexes (Fragaria x ananassa, UniProt C6KF71+K9LRD7). Description: ITC binding of ABA to FaRRP1–FaABAR complex. As to conditions: 0.4 mM S-(+)-ABA titrated into 20 μM complex, pH 7.4, 25 °C, exothermic. How it is done:
as §3, §4

Assay [6] deals with clathrin-mediated vesicle transport genes. Description: RT-qPCR of clathrin-mediated vesicle transport genes in ABA-incubated fruit discs. As to conditions: 100 μM ABA, white-stage fruit discs, vs control. It counts as cell-based, Fragaria × ananassa. The procedure: In vitro treatments were performed on fruits in the white stage using 100 μM ABA, and ABA-free buffer incubation was used as the control. The incubation was done as described by Song et al. ([77]). After a 2-h incubation followed by washing with double-distilled water, the discs were frozen in liquid nitrogen and kept at −80 °C until use. Samples are collected once at 0 h, 1 h, and 2 h. The experiment was performed with three replicates.
Total RNA was isolated from the fruit using the aforementioned method. The first-strand cDNA was used as the template for RT-qPCR, which was performed using the Trans Start Top UreenqPCR Super Mix Kit (TransGen Biotech) on the Light Cycler 96 real-time PCR system, with cDNA under different treatments as the template and strawberry Actin as the internal reference gene. The reaction procedures were as follows: predenaturation at 94 °C for 30 s, followed by 40 cycles of denaturation at 94 °C for 5 s, annealing at 60 °C for 15 s, and extension at 72 °C for 10 s. The experiment was duplicated three times independently. The Actin of the standard sample and the cDNA of the sample to be tested were repeated three times. Relative expression values were calculated by the 2^−ΔΔCt method, and SPSS22.0 software (https://www.spss.com) was used to analyze the experimental data.

Assay [7] has as its system FaRRP1-mediated endocytosis in root cells. Description: Endocytosis experiment under ABA treatment (FM4-64 staining of root cells). It counts as cell-based, Arabidopsis. As to conditions: 0.1 μM ABA 48 h, 10-days-old seedlings, 5 μM FM4-64 10 min; FaRRP1-OE line compared with WT. The procedure:
The 10-days-old FaRRP1 OE and WT Arabidopsis seedlings growing under the normal condition were collected and soaked into the equilibrium solution [1/2 MS salt (pH=5.70), 1% sugar (w/v)] for 30 min. Then, the seedlings were treated with 0.1 μM ABA. After 48 h later, these seedlings were stained with 5 μM FM4-64 (Invitrogen) dye for 10 min, washed with equilibrium solution for 3 times, and root cells were observed under a confocal laser scanning microscope (Zeiss LSM 710 META). The experiment was repeated three times.

The target in assay [8] is FaRRP1-His/MBP recombinant fusion protein (strawberry ripening-regulated protein 1) (Fragaria x ananassa (strawberry)). Description: ITC; 200 uM FaPYL2 dropped into 20 uM FaRRP1; ITC200 (MicroCal), 25 C; ITC buffer 20 mM Na2HPO4, 20 mM NaH2PO4, 300 mM NaCl, 20 mM MgCl2, pH 7.4; 20 injections.
The target in assay [9] is FaABAR-His recombinant fusion protein (magnesium chelatase H subunit) (Fragaria x ananassa (strawberry)). Description: ITC; 200 uM FaRRP1 dropped into 20 uM FaABAR; ITC200 (MicroCal), 25 C; ITC buffer 20 mM Na2HPO4, 20 mM NaH2PO4, 300 mM NaCl, 20 mM MgCl2, pH 7.4; 20 injections. A general note: In ITC the heat of successive injections is recorded.
Where [10] appears, read: 2 h, decreased in contrast to 1 h treatment.

FaRRP1-His/MBP fusion protein, sequence (K9LRD7 1-566): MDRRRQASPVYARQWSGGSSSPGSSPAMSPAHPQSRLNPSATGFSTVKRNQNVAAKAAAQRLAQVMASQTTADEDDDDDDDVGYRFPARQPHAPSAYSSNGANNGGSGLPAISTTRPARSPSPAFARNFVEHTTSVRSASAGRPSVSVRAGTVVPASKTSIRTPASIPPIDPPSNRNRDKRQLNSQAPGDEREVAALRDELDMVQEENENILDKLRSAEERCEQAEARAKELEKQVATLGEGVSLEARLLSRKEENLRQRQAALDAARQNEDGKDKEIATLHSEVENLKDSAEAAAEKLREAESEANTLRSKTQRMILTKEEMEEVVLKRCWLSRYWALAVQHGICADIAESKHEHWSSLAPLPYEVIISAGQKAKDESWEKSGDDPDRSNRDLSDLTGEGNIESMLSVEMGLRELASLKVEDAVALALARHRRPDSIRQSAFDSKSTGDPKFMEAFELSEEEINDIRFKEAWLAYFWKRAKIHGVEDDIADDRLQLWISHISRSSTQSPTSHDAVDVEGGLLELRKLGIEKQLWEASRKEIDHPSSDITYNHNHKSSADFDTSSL
FaRRP1-His/MBP recombinant fusion protein (strawberry ripening-regulated protein 1) (Fragaria x ananassa (strawberry)), sequence (K9LRD7 entry or part of it): as the sequence (K9LRD7 1-566) above
FaRRP1–FaABAR protein complexes, sequence (K9LRD7 1-566, one chain of several): as the sequence (K9LRD7 1-566) above

With `CC1=CC(=O)CC(C)(C)[C@@]1(O)/C=C/C(C)=C\C(=O)O` [ABA, Abscisic acid], in [1] (ITC fit, 0.4 mM ABA into 20 μM FaRRP1), the “N (stoichiometry) ABA-FaRRP1” value was 0.41 Sites. Binding in assay [1] (ITC, 0.4 mM S-(+)-ABA titrated into 20 μM protein, pH 7.4, 25 °C, exothermic, saturation curve) was characterised by a dissociation constant (Kd) of 140 µM. Also, the Kd (as a rule, the equilibrium constant for the complex coming apart) in assay [2] worked out at 102 µM. For the same molecule, the “N (stoichiometry) ABA-FaABAR” value in [3] (ITC fit, 0.4 mM ABA into 20 μM FaABAR) was 8.60 Sites. This molecule also came in with a Kd in assay [3] (ITC, 0.4 mM S-(+)-ABA titrated into 20 μM protein, pH 7.4, 25 °C, endothermic, could not reach saturation curve) of 258 µM. The same molecule registered a Kd in [4] of 30.6 µM. Further, binding in [5] was put at a Kd of 87.7 µM. In addition, in assay [6] (1 h), the “expression of FaAP1” value is on record as “significantly increased”, the “expression of FaAP2” value is listed as “significantly increased”, the “expression of FaCHC1” value is “not changed” and the “expression of FaCHC2” value is “significantly increased”. In assay [6] (1 h), the “expression of FaCLC1” value is on record as “significantly increased”, the “expression of FaCLC2” value was “decreased considerably”, the “expression of FaSCD1” value is listed as “significantly increased” and the “expression of FaSCD2” value is reported as “significantly increased”. Besides, in assay [6] (2 h), the “expression of FaAP1” value is recorded as “significantly decreased”, the “expression of FaCHC1” value is on record as “quite upregulated”, the “expression of FaCHC2” value was “significantly decreased” and the “expression of FaCLC2” value is given as “quite upregulated”. For the same molecule, the “expression of FaSCD1” value in assay [6] (2 h) was “significantly decreased”. For the same molecule, in [6] (setting [10]), the “expression of FaAP2” value is “significantly increased” and the “expression of FaSCD2” value is “significantly increased”. Further, the “degree of PM internalization (FM4-64–labeled fluorescent signal)” value in assay [7] is on record as “promote the degree of PM internalization”.

As for “FaPYL2-His recombinant fusion protein (natural protein)”, in assay [8], the Kd was determined as 75.6 µM.

“FaRRP1-His/MBP recombinant fusion protein (strawberry ripening-regulated protein 1) (natural protein)”: the Kd in [9] was 168 µM.

(Values after article PMC10582773, “A clathrin-related protein FaRRP1/SCD2 integrates ABA trafficking and signaling to regulate strawberry fruit ripening” (The Journal of Biological Chemistry, 2023).)
